Measurements reported in patent US8669360B2, “Methods of converting amorphous drug substance into crystalline form” (Boston Scientific Scimed, Inc., priority 2011, dated 2014).

What was measured:
[1] = Approximate solubility of amorphous everolimus in solvents; type: physicochemical; settings: room temperature
Experimental: Approximate solubilities of amorphous everolimus were determined by adding the drug gradually with stirring at room temperature to a fixed volume of the solvent until solid remained visible.

[2] = Comparative aqueous solubility of amorphous and crystalline everolimus (FIG. 3); type: physicochemical; settings: aqueous solubility at body temperature (37° C.)
From the text: FIG. 3 is a graph showing the relative water solubilities of the amorphous and crystalline forms of everolimus.

Amorphous Everolimus Solubilities ([1]; solvent ACN/water 3:2 v/v) [mg/mL] | Amorphous Everolimus Solubilities ([1]; solvent ACN) [mg/mL] | Amorphous Everolimus Solubilities ([1]; solvent Acetone) [mg/mL] | Amorphous Everolimus Solubilities ([1]; solvent DCM) [mg/mL] | Amorphous Everolimus Solubilities ([1]; solvent DMF/DCM w/w) [mg/mL] | Amorphous Everolimus Solubilities ([1]; solvent DMF/EtOAc w/w) [mg/mL] | Amorphous Everolimus Solubilities ([1]; solvent DMF/THF w/w) [mg/mL] | Amorphous Everolimus Solubilities ([1]; solvent DMF) [mg/mL] | Amorphous Everolimus Solubilities ([1]; solvent EtOH) [mg/mL] | Amorphous Everolimus Solubilities ([1]; solvent IPA) [mg/mL] | Amorphous Everolimus Solubilities ([1]; solvent MEK) [mg/mL] | Amorphous Everolimus Solubilities ([1]; solvent MTBE) [mg/mL] | Amorphous Everolimus Solubilities ([1]; solvent THF) [mg/mL] | Amorphous Everolimus Solubilities ([1]; solvent ethyl acetate) [mg/mL] | Amorphous Everolimus Solubilities ([1]; solvent m-xylene) [mg/mL] | Amorphous Everolimus Solubilities ([1]; solvent n-heptane) [mg/mL] | Amorphous Everolimus Solubilities ([1]; solvent p-dioxane) [mg/mL] | Amorphous Everolimus Solubilities ([1]; solvent water) [mg/mL] | Solubility of crystalline everolimus, times lower than that of amorphous everolimus [2] | Structure (SMILES)
~52 | ~100 | ~100 | ~46 | ~142 | ~119 | ~112 | ~49 | ~100 | ~15 | ~70 | ~62 | ~67 | ~100 | ~76 | ~0.5 | ~58 | ~0.1 |  | CO[C@H]1C[C@@H]2CC[C@@H](C)[C@@](O)(O2)C(=O)C(=O)N2CCCC[C@H]2C(=O)O[C@H]([C@H](C)C[C@@H]2CC[C@@H](OCCO)[C@H](OC)C2)CC(=O)[C@H](C)/C=C(\C)[C@@H](O)[C@@H](OC)C(=O)[C@H](C)C[C@H](C)/C=C/C=C/C=C/1C [Amorphous Everolimus, 40-O-(2-Hydroxyethyl)rapamycin]
 |  |  |  |  |  |  |  |  |  |  |  |  |  |  |  |  |  | about 25 times | CO[C@H]1C[C@@H]2CC[C@@H](C)[C@@](O)(O2)C(=O)C(=O)N2CCCC[C@H]2C(=O)O[C@H]([C@H](C)C[C@@H]2CC[C@@H](OCCO)[C@H](OC)C2)CC(=O)[C@H](C)/C=C(\C)[C@@H](O)[C@@H](OC)C(=O)[C@H](C)C[C@H](C)/C=C/C=C/C=C/1C [crystalline everolimus, 40-O-(2-Hydroxyethyl)rapamycin]
